Experimental data taken from US20030134779A1, “Method and composition for treatment and/or prevention of antibiotic-resistant microorganism infections” (priority 2002, published 2003).
Where two headings read alike, the source gives them in different places.

What was measured:
S. aureus strains [1] = assay: Disk diffusion susceptibility test and cefinase test; type: cell-based, Staphylococcus aureus; settings: β-lactamase producing strains
Description: For quality control, disk diffusion susceptibility tests, as recommended by the National Committee for Clinical Laboratory Standard, were performed on all strains using standard disk of various antibiotics. After 18 h of incubation at 37° C., the diameter of the zone of complete inhibition of bacterial growth around each disk was measured. Isolates were categorized as sensitive or resistant for a given antibiotic using the recommended interpretative guidelines of the manufacturer.

S. aureus PC-1 = assay: MIC of penicillin G alone or with bovine LF, macrodilution; type: cell-based; settings: Staphylococcus aureus, strain β-lactamase +A constitutive
Excerpt: (§1) Staphylococcus aureus strains ATCC 25923 and 6538 and Escherichia coli ATCC 25922 were obtained from the American Type Culture Collection. Eight bovine mastitis clinical isolates of S. aureus (SHY97-3906, -3923, -4085 -4242, -4320 and -4343, RFT-1 and RFT-5) and one isolate of E. coli SHY97-3923-2 and one isolate of Kiebsiella pneumoniae SHY99-723-1 were kindly provided by the Laboratoire Provincial de Pathologie Animale of St-Hyacinthe and of Rock-Forest (Quebec, Canada), respectively. Nine β-lactam antibiotics resistant S. aureus strains (PC-1, NCTC 9789, 2076, 22260, ST79/741, 3804, RN9, FAR8, and FAR10) were obtained from Vanderbilt University School of Medicine (Nashville, Tenn., USA). All the culture media were from Difco Laboratories (Detroit, Mich.). Bacteria from frozen stock at −80° C. were streaked onto tryptic soy agar plates suplemented with 5% of defibrinated sheep blood (Quelab, Montreal, QC, Canada) or Brain Heart infusion agar plates. Plates were then incubated for 16 to 24 h at 37° C. For most experiments, the strains were subcultured onto Mueller Hinton agar plates (MHA) or broth (MHB) for an additional 16-20 h. Aqueous solutions of the tested products were added by filtration through a sterile filter assembly (pore size 0.2 μm, Fisher, Ottawa, Ontario).
(§2) The MICs were determined by both macrodilution (1 ml/tube) and microdilution (100 μl/well) in sterile 96 well microtiter plates (International Nunc, Napierville, Ill.) techniques in three separate experiments according to the National Committee for Clinical Laboratory Standards (1992 and 1999) in three separate experiments. Serial 2-fold dilutions in MHB of LF, LFC, antibiotic or combination of LF or LFC with antibiotic were inoculated with an overnight culture at a final inoculum of 10^6 cfu/ml in MHB. Effect of LF combination with antibiotic on MICs were determined by adding 0.5 mg or 1 mg/ml of LF to each antibiotic dilution. The MIC was defined as the lowest concentration of drug (highest dilution) that caused a complete inhibition of bacterial growth after an incubation of 18 h. Effect of LF or LFC combination with antibiotic on MIC was also determined by checkerboard method using 96 well microtiter plates. Each antibiotic dilution (50 μl) was serially added to the wells in vertical rows starting from the top (lower dilution) to the bottom. Lactoferrin or LFC (50 μl) were added to 50 μl of each antibiotic dilution and serially diluted starting at the left (lower dilution) to the right. After inoculation, the final concentration of antibiotic from top to bottom were 32 to 8, 2 to 0.5, 0.5 to 0.125 μg/ml for penicillin, cefazolin and neomycin, respectively. From left to right, the concentration of LF or LFC were 25 to 0.0244 mg/ml or 256 to 0.5 μg/ml respectively in a final volume of 100 μl/well. The microplate's were incubated at 37° C. for 24 h. Bacterial growth was measured optically at 540 nm using Spectra Max 250 Microplate Spectrophotometer System of Molecular Device (Fisher Scientific, Ottawa, Canada). Tubes were incubated at 37° C. for 18 h and bacterial growth was measured by visual examination and optically at 540 nm using a spectrophotometer (Philips PU 8800; Pye Unican Ltd, Cambridge, UK). The fractional inhibitory concentration (FIC) was calculated as described by Eliopoulos and Moellering (1991).

S. aureus FAR 10 = assay: as above; type: cell-based; settings: Staphylococcus aureus, strain β-lactamase +D, read-out: MICs of penicillin G
Excerpt: as §1, §2

S. aureus FAR 8 = assay: as above; type: cell-based; settings: Staphylococcus aureus, strain β-lactamase +D, read-out: MICs of penicillin G
Excerpt: as §1, §2

S. aureus ST79/41 = assay: as above; type: cell-based; settings: Staphylococcus aureus, strain β-lactamase +B, read-out: MICs of penicillin G
Excerpt: as §1, §2

S. aureus ATCC 25923 = assay: as above; type: cell-based; settings: Staphylococcus aureus, strain β-lactamase type −, read-out: MICs of penicillin G
Excerpt: as §1, §2

S. aureus strains [2] = assay: MIC / FIC determination, summary over strains; type: cell-based, Staphylococcus aureus; settings: with 0.5 mg/ml LF; all tested strains except ATCC 25923 and SHY97-3906 (needed 1 mg/ml LF)
Excerpt: Staphylococcus aureus strains ATCC 25923 and 6538 and Escherichia coli ATCC 25922 were obtained from the American Type Culture Collection. Eight bovine mastitis clinical isolates of S. aureus (SHY97-3906, -3923, -4085 -4242, -4320 and -4343, RFT-1 and RFT-5) and one isolate of E. coli SHY97-3923-2 and one isolate of Kiebsiella pneumoniae SHY99-723-1 were kindly provided by the Laboratoire Provincial de Pathologie Animale of St-Hyacinthe and of Rock-Forest (Quebec, Canada), respectively. Nine β-lactam antibiotics resistant S. aureus strains (PC-1, NCTC 9789, 2076, 22260, ST79/741, 3804, RN9, FAR8, and FAR10) were obtained from Vanderbilt University School of Medicine (Nashville, Tenn., USA). […]
The MICs were determined by both macrodilution (1 ml/tube) and microdilution (100 μl/well) in sterile 96 well microtiter plates (International Nunc, Napierville, Ill.) techniques in three separate experiments according to the National Committee for Clinical Laboratory Standards (1992 and 1999) in three separate experiments. […] Effect of LF combination with antibiotic on MICs were determined by adding 0.5 mg or 1 mg/ml of LF to each antibiotic dilution. […] Effect of LF or LFC combination with antibiotic on MIC was also determined by checkerboard method using 96 well microtiter plates. […] The fractional inhibitory concentration (FIC) was calculated as described by Eliopoulos and Moellering (1991). […]

[3] = tested on: β-lactamase activity of S. aureus SHY97-4320; assay: β-lactamase activity, nitrocefin assay, bovine LF/LFC; type: cell-based; settings: 8-μg/ml penicillin G alone
Description: The effects of sub-MICs of LF (1 mg/ml), LFC (32 and 64 μg/ml) alone or in combination with ampicillin (4μg/ml) or penicillin G (8 μg/ml) were evaluated on the β-lactamase activity of S. aureus strains SHY97-4320 and PC-1. The chromogenic cephalosporin nitrocefin (Becton Dickinson, Microbiology, Cockeysville, Md.) was used in a quantitative spectrophotometric assay. Bacterial cells were first exposed during 4 and 22-h to drugs in broth. The number of bacteria (cfu/ml) were determined and cells aliquots were centrifuged at each point in time. The pellets were suspended in 10 mM HEPES buffer (pH 7.4) to an OD415 nm of 1 for PC-1 and 2 for SHY97-4320. Nitrocefin (100 μM) was added to 100 μl of cells in a final volume of 1 ml. Hydrolysis was measured at 486 nm on spectrophotometer. β-lactamase activity was expressed as ΔO.D.486 nm/min and corrected for bacterial OD.

`CC1(C)S[C@@H]2[C@H](NC(=O)Cc3ccccc3)C(=O)N2[C@H]1C(=O)O` [penicillin G, Penicillin G] was tested, and the “susceptibility by standard disk diffusion and cefinase test” value (S. aureus strains [1]) was “resistance”, the MIC (S. aureus PC-1; PC1, read-out: MICs of penicillin G, +0.5 mg/ml LF) was 128 µg/mL and the MIC (S. aureus PC-1; PC1, read-out: MICs of penicillin G, +1 mg/ml LF) was 128 µg/mL. The MIC (S. aureus PC-1; PC1, read-out: MICs of penicillin G, Alone) was > 128 µg/mL, the MIC (S. aureus FAR 10; FAR10, +0.5 mg/ml LF) was 1 µg/mL and the MIC (S. aureus FAR 10; FAR10, +1 mg/ml LF) was 1 µg/mL. It also gave an MIC (S. aureus FAR 10; FAR10, Alone) of 2 µg/mL, an MIC (S. aureus FAR 8; FAR8, +0.5 mg/ml LF) of 8 µg/mL and an MIC (S. aureus FAR 8; FAR8, +1 mg/ml LF) of 8 µg/mL. The MIC (S. aureus FAR 8; FAR8, Alone) was 16 µg/mL, the MIC (S. aureus ST79/41; ST79/41, +0.5 mg/ml LF) was 16 µg/mL and the MIC (S. aureus ST79/41; ST79/41, +1 mg/ml LF) was 16 µg/mL. The MIC (S. aureus ST79/41; ST79/41, Alone) was 32 µg/mL, the MIC (S. aureus ATCC 25923; ATCC25923, +0.5 mg/ml LF) was 0.031 µg/mL and the MIC (S. aureus ATCC 25923; ATCC25923, +1 mg/ml LF) was 0.015 µg/mL. For the same compound, the MIC (S. aureus ATCC 25923; ATCC25923, Alone) was 0.031 µg/mL, the “increase of inhibitory activity of penicillin” value (S. aureus strains [2]) was “two-fold” and the β-lactamase activity [3] was “a large increase in β-lactamase activity”.
